Measurements taken from patent US20120022054A1, “NOVEL SUBSTITUTED ARYL DERIVATIVES, THEIR PROCESS OF PREPARATION AND THEIR THERAPEUTICAL USES AS ANTI-HIV AGENTS” (priority 2008, published 2012).
Where two headings read alike, the source gives them in different places.

Key:
[1] = system: Env-deleted NL4-3 vector virus pseudotyped with the VSV g envelope; test: microbe, parasite or virus in culture; type: cell-based, HIV-1; conditions: Vesicular stomatitis virus, NL43, SUP-T1, 48 h, read-out: EC50 for antiviral activity (50% inhibition of luciferase activity)
NL4-3 strain of HIV-1 = test: Multiple cycle infection assay of CAp24 antigen production; type: cell-based; conditions: Human immunodeficiency virus 1, NL43, SUP-T1, 96 h, multiple cycle infection with NL4-3 virus, SupT1, MT4 or PBMC, MOI 0.01, day 4 and day −6 post-infection, read-out: EC50 for antiviral activity (50% inhibition of CA p24 production)

SMILES	EC50 [1] [µM]	EC50 (NL4-3 strain of HIV-1; threshold below 5 μM) [µM]	EC50 (NL4-3 strain of HIV-1; threshold below 500 nM) [µM]
COc1ccc2c(ccn2CCCC(=O)N(C)Cc2cc(F)ccc2OC)c1 [Example 109, N-(5-fluoro-2-methoxybenzyl)-4-(5-methoxy-1H-indol-1-yl)-N-methylbutanamide]	< 5	< 5	
COc1ccccc1CN(C)C(=O)CCCCc1ccc(O)cc1 [Example 19, 5-(4-Hydroxyphenyl)-N-(2-methoxybenzyl)-N-methylpentanamide]	< 5	< 5	
COc1ccc(Br)cc1CN(C)C(=O)CCCSc1ccc(F)cc1 [Example 92, N-(5-Bromo-2-methoxybenzyl)-4-[(4-fluorophenyl)thio]-N-methylbutanamide]	< 5	< 5	
COc1c(C)cccc1CN(C)C(=O)CCCSc1ccc(O)cc1 [Example 69, 4-[(4-Hydroxyphenyl)thio]-N-(2-methoxy-3-methylbenzyl)-N-methylbutanamide]	< 5	< 5	
CN(Cc1ccccc1Cl)C(=O)CCCSc1ccc(F)cc1 [Example 14, N-(2-Chlorobenzyl)-4-[(4-fluorophenyl)thio]-N-methylbutanamide]	< 5	< 5	
COc1ccccc1CN(C)C(=O)CCCSc1ccc2ccccc2c1 [Example 17, N-(2-Methoxybenzyl)-N-methyl-4-(2-naphthylthio)butanamide]	< 5	< 5	
CC(C)Oc1ccccc1CN(C)C(=O)CCCSc1ccc(O)cc1 [Example 41, 4-[(4-Hydroxyphenyl)thio]-N-(2-isopropoxybenzyl)-N-methylbutanamide]	< 5	< 5	
COc1ccc(SCCCC(=O)N(C)Cc2cc(F)ccc2OC(C)C)cc1 [Example 117, N-(5-fluoro-2-isopropoxybenzyl)-4-[(4-methoxyphenyl)thio]-N-methylbutanamide]	< 5	< 5	
CN(Cc1ccccc1N1CCN(CCN2CCOCC2)CC1)C(=O)CCCSc1ccc(O)cc1 [Example 53, 4-[(4-Hydroxyphenyl)thio]-N-methyl-N-{2-[4-(2-morpholin-4-ylethyl)piperazin-1-yl]benzyl}butanamide]	< 5	< 5	
CN(Cc1ccccc1Cl)C(=O)CCCSc1ccc(O)cc1 [Example 3, N-(2-Chlorobenzyl)-4-[(4-hydroxyphenyl)thio]-N-methylbutanamide]	< 5	< 5	
CC(C)Oc1ccccc1CN(C)C(=O)CCCCc1ccc(O)cc1 [Example 59, 5-(4-Hydroxyphenyl)-N-(2-isopropoxybenzyl)-N-methylpentanamide]	< 5	< 5	
CN(Cc1ccccc1N1CCN(CCO)CC1)C(=O)CCCSc1ccc(O)cc1 [Example 73, N-{2-[4-(2-hydroxyethyl)piperazin-1-yl]benzyl}-4-[(4-hydroxyphenyl)thio]-N-methylbutanamide]	< 5	< 5	
CCOc1ccccc1CN(C)C(=O)CCCSc1ccc(O)cc1 [Example 30, N-(2-ethoxybenzyl)-4-[(4-hydroxyphenyl)thio]-N-methylbutanamide]	< 5	< 5	
COc1ccc(C)cc1CN(C)C(=O)CCCn1ccc2ccc(F)cc21 [Example 121, 4-(6-fluoro-1H-indol-1-yl)-N-(2-methoxy-5-methylbenzyl)-N-methylbutanamide]	< 5	< 5	
CN(Cc1ccccc1-c1ccco1)C(=O)CCCn1ccc2cc(F)ccc21 [Example 122, 4-(5-fluoro-1H-indol-1-yl)-N-(2-(furan-2-yl)benzyl)-N-methylbutanamide]	< 5	< 5	
CN(C(=O)CCCSc1ccc(F)cc1)c1cccc2cnccc12 [Example 131, 4-[(4-fluorophenyl)thio]-N-isoquinolin-5-yl-N-methylbutanamide]	< 5	< 5	
CN(Cc1cc(F)cc2c1OCOC2)C(=O)CCCSc1ccc(F)cc1 [Example 96, N-[(6-fluoro-4H-1,3-benzodioxin-8-yl)methyl]-4-[(4-fluorophenyl)thio]-N-methylbutanamide]	< 5	< 5	
CN(C(=O)CCCSc1ccc(O)cc1)C(c1ccccc1)c1ccccc1 [Example 10, N-Benzhydryl-4-[(4-hydroxyphenyl)thio]-N-methylbutanamide]	< 5	< 5	
C=CCOc1ccccc1CN(C)C(=O)CCCSc1ccc(F)cc1 [Example 90, N-[2-(Allyloxy)benzyl]-4-[(4-fluorophenyl)thio]-N-methylbutanamide]	< 5	< 5	
COc1ccc(-n2cccn2)c(CN(C)C(=O)CCCSc2ccc(F)cc2)c1 [Example 98, 4-[(4-fluorophenyl)thio]-N-[5-methoxy-2-(pyrazol-1-yl)benzyl]-N-methylbutanamide]	< 5	< 5	

SMILES	EC50 [1] [µM]	EC50 (NL4-3 strain of HIV-1; threshold below 5 μM) [µM]	EC50 (NL4-3 strain of HIV-1; threshold below 500 nM) [µM]
COc1ccc(F)cc1CN(C)C(=O)CCCSc1ccc(Cl)cc1 [Example 112, 4-[(4-chlorophenyl)thio]-N-(5-fluoro-2-methoxybenzyl)-N-methylbutanamide]	< 5	< 5	
Cc1ccccc1CN(C)C(=O)CCCSc1ccc(O)cc1 [Example 37, 4-[(4-Hydroxyphenyl)thio]-N-methyl-N-(2-methylbenzyl)butanamide]	< 5	< 5	
CN(Cc1ccccc1-c1ccco1)C(=O)CCCSc1ccc(F)cc1 [Example 95, 4-[(4-fluorophenyl)thio]-N-[2-(2-furyl)benzyl]-N-methylbutanamide]	< 5	< 5	
CN(Cc1cccc(Cl)c1Cl)C(=O)CCCSc1ccc(O)cc1 [Example 34, N-(2,3-Dichlorobenzyl)-4-[(4-hydroxyphenyl)thio]-N-methylbutanamide]	< 5	< 5	
CCOC(=O)c1cc(F)ccc1SCCCC(=O)N(C)c1cccc(OC)c1 [Example 195, Ethyl 5-fluoro-2-({4-[(3-methoxyphenyl)(methyl)amino]-4-oxobutyl}thio)benzoate]	< 5		
COc1ccccc1CN(C)C(=O)CCCSc1ccc(NC(C)=O)cc1 [Example 20, 4-{[4-(Acetylamino)phenyl]thio}-N-(2-methoxybenzyl)-N-methylbutanamide]	< 5	< 5	
CN(Cc1c(F)cccc1Cl)C(=O)CCCSc1ccc(O)cc1 [Example 31, N-(2-chloro-6-fluorobenzyl)-4-[(4-hydroxyphenyl)thio]-N-methylbutanamide]	< 5	< 5	
COc1ccccc1CN(C)C(=O)CCCSc1ccc(NS(C)(=O)=O)cc1 [Example 93, N-(2-Methoxybenzyl)-N-methyl-4-{[4-(methylsulfonylamino)phenyl]thio}butanamide]	< 5	< 5	
COc1ccc(F)cc1N(C)C(=O)CCCSc1ccc(F)cc1 [Example 102, N-(5-fluoro-2-methoxyphenyl)-4-[(4-fluorophenyl)thio]-N-methylbutanamide]	< 5	< 5	
COc1c(Cl)cc(Cl)cc1CN(C)C(=O)CCCSc1ccc(O)cc1 [Example 74, N-(3,5-Dichloro-2-methoxybenzyl)-4-[(4-hydroxyphenyl)thio]-N-methylbutanamide]	< 5	< 5	
COc1ccccc1CN(C)C(=O)CCCSc1ccc2ccccc2n1 [Example 39, N-(2-Methoxybenzyl)-N-methyl-4-(quinolin-2-ylthio)butanamide]	< 5	< 5	
COc1ccc([S+]([O-])CCCC(=O)N(C)c2nccc3ccccc23)cc1 (stereo not shown) [Example 133, N-isoquinolin-1-yl-4-[(4-methoxyphenyl)sulfinyl]-N-methylbutanamide]	< 5	< 5	
COc1ccccc1CN(C)C(=O)CCCSc1cccc(O)c1 [Example 26, 4-[(3-hydroxyphenyl)thio]-N-(2-methoxybenzyl)-N-methylbutanamide]	< 5	< 5	
CCOC(=O)N1CCN(c2ccccc2CN(C)C(=O)CCCSc2ccc(O)cc2)CC1 [Example 47, Ethyl 4-[2-({4-[(4-hydroxyphenyl)thio]butanoyl}methylamino)methylphenyl]-piperazine-1-carboxylate]	< 5	< 5	
COc1cc(C)ccc1CN(C)C(=O)CCCSc1ccc(O)cc1 [Example 75, 4-[(4-Hydroxyphenyl)thio]-N-(2-methoxy-4-methylbenzyl)-N-methylbutanamide]	< 5	< 5	
COc1ccccc1N(C)C(=O)CCCSc1ccc(F)cc1 [Example 126, 4-[(4-Fluorophenyl)thio]-N-(2-methoxyphenyl)-N-methylbutanamide]	< 5	< 5	
COc1ccccc1CN(C)C(=O)CCCSc1ccc(O)cc1 [Example 35, 4-[(4-Hydroxyphenyl)thio]-N-(2-methoxybenzyl)-N-methylbutanamide]	< 5	< 5	
COc1ccc(Cl)cc1CN(C)C(=O)CCCn1cc(-c2ccc(F)cc2)cn1 [Example 173, N-(5-Chloro-2-methoxybenzyl)-4-[4-(4-fluorophenyl)pyrazol-1-yl]-N-methylbutanamide]		< 5	< 0.5
COc1ccc(C)cc1CN(C)C(=O)CCCn1ccc2cc(F)ccc21 [Example 120, 4-(5-fluoro-1H-indol-1-yl)-N-(2-methoxy-5-methylbenzyl)-N-methylbutanamide]		< 5	< 0.5
CC(C)Oc1ccc(F)cc1CN(C)C(=O)CCCSc1ccc(F)cc1 [Example 85, N-(5-Fluoro-2-isopropoxybenzyl)-4-[(4-fluorophenyl)thio]-N-methylbutanamide]		< 5	< 0.5
